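Cells were grown in 96-well plates and exposed to each compound for 48 hours at five concentrations; endpoints were interpolated linearly between bracketing concentrations, or set to the highest concentration if not reached. GI50 is the concentration that inhibits growth by half.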 Active and inactive are the calls of the source. Cut-off read from the data, not from the text of the source: active = GI50 up to about 1.1 µM and inactive = higher.
Legend:
Test in all cases: NCI-60 cell line screen, 48 h
HOP-92 = test system: HOP-92
MDA-MB-231 = test system: MDA-MB-231
SNB-75 = test system: SNB-75
HOP-62 = test system: HOP-62
IGROV-1 = test system: IGROV-1
HCC 2998 = test system: HCC 2998
SK-MEL-28 = test system: SK-MEL-28
HT-29 = test system: HT-29
A549 = test system: A549
UACC-257 = test system: UACC-257
OVCAR-4 = test system: OVCAR-4
MOLT-4 = test system: MOLT-4
SK-MEL-5 = test system: SK-MEL-5
SK-MEL-2 = test system: SK-MEL-2
786-0 = test system: 786-0
SF-295 = test system: SF-295
MDA-MB-435 = test system: MDA-MB-435
SF-539 = test system: SF-539
HCT-116 = test system: HCT-116
COLO 205 = test system: COLO 205

| Compound | GI50 (HOP-92) | GI50 (MDA-MB-231) | GI50 (SNB-75) | GI50 (HOP-62) | GI50 (IGROV-1) | GI50 (HCC 2998) | GI50 (SK-MEL-28) | GI50 (HT-29) | GI50 (A549) | GI50 (UACC-257) | GI50 (OVCAR-4) | GI50 (MOLT-4) | GI50 (SK-MEL-5) | GI50 (SK-MEL-2) | GI50 (786-0) | GI50 (SF-295) | GI50 (MDA-MB-435) | GI50 (SF-539) | GI50 (HCT-116) | GI50 (COLO 205) |
| --- | --- | --- | --- | --- | --- | --- | --- | --- | --- | --- | --- | --- | --- | --- | --- | --- | --- | --- | --- | --- |
| C=C(C(=O)O[C@H]1C(=O)C2=C(C)CCC3C(=C)C(=O)O[C@@H]3C2[C@]1(C)O)C1CC[C@]2(C)CCCC(=C)[C@H]2C1 (stereo not given in full) | 5.08 µM (inactive) | 5.78 µM (inactive) | 0.327 µM (active) | 8.32 µM (inactive) | 4.62 µM (inactive) | 1.91 µM (inactive) | 5.92 µM (inactive) | 4.24 µM (inactive) | 8.89 µM (inactive) | 4.25 µM (inactive) | 5.36 µM (inactive) | 2.21 µM (inactive) | 12.2 µM (inactive) | 8.45 µM (inactive) | 1.88 µM (inactive) | 15.5 µM (inactive) | 3.35 µM (inactive) | 4.1 µM (inactive) | 3.28 µM (inactive) | 8.77 µM (inactive) |
| Cn1cnc2c(OCC3CCCCC3)nc(N)nc21 | 32.4 µM (inactive) | > 100 µM (inactive) | 36.3 µM (inactive) | > 100 µM (inactive) | 36.5 µM (inactive) | > 100 µM (inactive) | > 100 µM (inactive) | 73.8 µM (inactive) | > 100 µM (inactive) | > 100 µM (inactive) | > 100 µM (inactive) | > 100 µM (inactive) | 70.6 µM (inactive) | > 100 µM (inactive) | > 100 µM (inactive) | > 100 µM (inactive) | > 100 µM (inactive) | > 100 µM (inactive) | > 100 µM (inactive) | > 100 µM (inactive) |
| c1ccc(CCNCc2ccco2)nc1 | > 100 µM (inactive) | > 100 µM (inactive) | > 77.4 µM (inactive) | > 100 µM (inactive) | > 100 µM (inactive) | > 100 µM (inactive) | > 100 µM (inactive) | > 100 µM (inactive) | > 100 µM (inactive) | > 100 µM (inactive) | > 100 µM (inactive) | > 100 µM (inactive) | > 100 µM (inactive) | > 100 µM (inactive) | > 100 µM (inactive) | > 100 µM (inactive) | > 100 µM (inactive) | > 100 µM (inactive) | > 100 µM (inactive) | > 100 µM (inactive) |
| Cc1cc(=O)n2nc(CSc3nnc(N)s3)sc2n1 | > 100 µM (inactive) | > 100 µM (inactive) | > 100 µM (inactive) | > 100 µM (inactive) | > 100 µM (inactive) | > 100 µM (inactive) | > 100 µM (inactive) | > 100 µM (inactive) | > 100 µM (inactive) | > 100 µM (inactive) | > 100 µM (inactive) | > 100 µM (inactive) | > 100 µM (inactive) | > 100 µM (inactive) | > 100 µM (inactive) | > 100 µM (inactive) | > 100 µM (inactive) | > 100 µM (inactive) | > 100 µM (inactive) | > 100 µM (inactive) |
| COc1ccc(CNc2cc(=O)n(C)c(=O)[nH]2)cc1 | > 100 µM (inactive) | > 100 µM (inactive) | 33.3 µM (inactive) | > 100 µM (inactive) | > 100 µM (inactive) | > 100 µM (inactive) | > 100 µM (inactive) | > 100 µM (inactive) | > 100 µM (inactive) | > 100 µM (inactive) | > 100 µM (inactive) | > 100 µM (inactive) | > 100 µM (inactive) | > 100 µM (inactive) | > 100 µM (inactive) | > 100 µM (inactive) | > 100 µM (inactive) | > 100 µM (inactive) | > 100 µM (inactive) | > 100 µM (inactive) |
| OCCSCc1ccccc1 | > 100 µM (inactive) | > 100 µM (inactive) | > 100 µM (inactive) | > 100 µM (inactive) | > 100 µM (inactive) | > 100 µM (inactive) | > 100 µM (inactive) | > 100 µM (inactive) | > 100 µM (inactive) | > 100 µM (inactive) | > 100 µM (inactive) | > 100 µM (inactive) | > 100 µM (inactive) | > 100 µM (inactive) | > 100 µM (inactive) | > 100 µM (inactive) | > 100 µM (inactive) | > 100 µM (inactive) | > 100 µM (inactive) | > 100 µM (inactive) |
| O=c1ssc2c1Nc1c(ssc1=O)S2 | 15 µM (inactive) | 23.4 µM (inactive) | 16.5 µM (inactive) | 18.5 µM (inactive) | 13.2 µM (inactive) | 15.1 µM (inactive) | 18.5 µM (inactive) | 24.3 µM (inactive) | 19.2 µM (inactive) | 14.6 µM (inactive) | 14.4 µM (inactive) | 9.51 µM (inactive) | 15.7 µM (inactive) | 16.1 µM (inactive) | 3.87 µM (inactive) | 27.7 µM (inactive) | 18.5 µM (inactive) | 7.21 µM (inactive) | 15.4 µM (inactive) | 18 µM (inactive) |

— ChEMBL document CHEMBL1201862, “PubChem BioAssay data set” (2004)
